In PMC3974779, “Pterostilbene-Isothiocyanate Conjugate Suppresses Growth of Prostate Cancer Cells Irrespective of Androgen Receptor Status” (PLoS ONE, 2014):
Residues, ends and D or L forms follow the SMILES beside them. *: point of attachment. Cbz = O=C(OCc1ccccc1)*; CH2F = FC*

Key:
[1] = tested on: p53 protein in LNCaP cells; assay: Immunoblot of p53 with p53 inhibitor; format: cell-based, human; conditions: 20 μM PFT-α, 20 and 40 μM conjugate, 24 h
Experimental: The whole-cell lysates were prepared as described previously in immunoprecipitation (IP) buffer containing 50 mM Tris-HCl (pH 8.0), 150 mM NaCl, 5 mM EDTA, and 1% Triton X-100. Protein aliquots of 500 μg were then incubated overnight at 4°C using 2 μg of antibody directed against AR. The Protein A-Cl Agarose beads were then added and further incubated for 6 h at 4°C. The immunoprecipitates were washed four times with the IP buffer and the immunocomplexes were recovered by boiling in SDS sample buffer. Finally the western blot was carried out using anti-AR, anti-SRC-1 and anti-GRIP-1 antibodies (Santa Cruz, CA, USA). For western blot analysis, the cell lysates were prepared after harvesting them in lysis buffer. About 40 μg of total protein was electrophoresed by 12% SDS-PAGE, and the western blotting was carried out using standard protocol. In brief, the analyzed proteins were transferred to nylon membranes. […]
Since there was no significant difference in the number of apoptotic cells between conjugate treated LNCaP (wild type p53) and PC-3 (p53 null) cells (p<0.05), it was intriguing to check if p53 has any role in conjugate induced apoptosis of PCa cells. […] Next we determined the effect of p53-inhibition on conjugate induced cell death by using MTT assay.

AR in LNCaP cells = assay: Immunofluorescence staining of endogenous AR; format: cell-based, human; conditions: varying doses of conjugate, 20 μM RESV, DHT
Experimental: The cells were then incubated with AR rabbit polyclonal antibody diluted 1∶200 in blocking buffer for 1 h at RT. Finally, the cells were washed with PBS and incubated with FITC-labelled anti-rabbit secondary antibody diluted 1∶1000 in blocking buffer for 30 min at room temperature. The cells were then observed under a fluorescence microscope (Zeiss, Axiovert 25, Germany).

[2] = tested on: caspase-3 expression in PC-3 cells; assay: Immunoblot analysis of apoptotic markers; format: cell-based, human; conditions: PC-3, highest dose (40 μM), immunoblot densitometry
Experimental: (§1) The whole-cell lysates were prepared as described previously in immunoprecipitation (IP) buffer containing 50 mM Tris-HCl (pH 8.0), 150 mM NaCl, 5 mM EDTA, and 1% Triton X-100. Protein aliquots of 500 μg were then incubated overnight at 4°C using 2 μg of antibody directed against AR. The Protein A-Cl Agarose beads were then added and further incubated for 6 h at 4°C. The immunoprecipitates were washed four times with the IP buffer and the immunocomplexes were recovered by boiling in SDS sample buffer. Finally the western blot was carried out using anti-AR, anti-SRC-1 and anti-GRIP-1 antibodies (Santa Cruz, CA, USA). For western blot analysis, the cell lysates were prepared after harvesting them in lysis buffer. About 40 μg of total protein was electrophoresed by 12% SDS-PAGE, and the western blotting was carried out using standard protocol. In brief, the analyzed proteins were transferred to nylon membranes. The blots were then blocked with TBST buffer (20 mM Tris-Cl, pH 7.5, 150 mM sodium chloride, 0.05% Tween-20) containing 5% skim milk powder. They were then washed with TBST buffer and incubated overnight at 4°C with the same buffer containing appropriate amounts of primary antibodies: caspase-3, Bax, Bcl-2, Akt, p-Akt, ERK, p-ERK, AR, SRC-1, GRIP-1 (1∶500) and β-actin (1∶1000). The blots were then washed and incubated with anti-rabbit secondary antibody (1∶20,000) conjugated with horseradish peroxidase (HRP). Color development was performed in the dark by using an ECL kit (Amersham, GE Healthcare, Buckinghamshire, UK). The developed blots were subjected to densitometric analysis by ImageJ 1.43 software (NIH, USA) using β-actin as internal control.

[3] = tested on: caspase-3 expression in LNCaP cells; assay: Immunoblot analysis of apoptotic markers; format: cell-based, human; conditions: highest dose (40 μM), immunoblot densitometry
Experimental: as §1

p-Akt in PC-3 cells = assay: Immunoblot of Akt phosphorylation; format: cell-based, human; conditions: 24 h
Experimental: as §1
(§2) The siRNAs against human Akt and ERK and control siRNA were purchased commercially from Santa Cruz Biotechnology (USA). The LNCaP and PC-3 PCa cells were transfected with siRNAs (at a final concentration of 100 nM) using polyfect transfection reagent (Qiagen, CA, USA) according to manufacturer’s instructions. After 24 h of transfection, the cells were washed properly and replaced with fresh medium. The cells were then treated with 20 μM conjugate for 24 h, and finally protein lysates were prepared on completion of treatment. The levels of p-Akt, p-ERK and cleaved caspase-3 expressions were detected by Western blot analysis.

p-Akt in LNCaP cells = assay: Immunoblot of Akt phosphorylation; format: cell-based, human; conditions: below 20 μM, 24 h
Experimental: as §1, §2

[4] = tested on: caspase-3 activity in PC-3 cells; assay: Caspase colorimetric protease assay; format: cell-based, human; conditions: PC-3, 10, 20 and 40 μM, 24 h
Experimental: (§3) Caspase activity was determined using ApoTarget caspase colorimetric protease assay sampler kit (KHZ1001; Invitrogen) according to the manufacturer’s instructions. Briefly, both the PCa cells were treated with increasing doses of conjugate and RESV for 24 h. The cells were then collected, washed in PBS, and lysed in 50 μl lysis buffer on ice for 10 min. After centrifugation, the supernatant containing 150 μg proteins were incubated with 200 μM of caspase-3 (Ac-DEVD-pNA), caspase-8 (Ac-IETD-pNA) and caspase-9 (Ac-LEHD-pNA) substrates respectively in reaction buffer at 37°C for 1 h in 96 well flat bottom plate. Levels of released pNA were then measured at 405 nm wavelength with ELISA plate reader (Fluostar optima, BMG Labtech, Germany). The fold-increase in caspase-3, -8, and -9 activities were determined by direct comparison to the level of un-induced control. For the caspase inhibitor assay, cells were pretreated with a synthetic pan-caspase inhibitor (Z-VAD-FMK), caspase-8 inhibitor (Z-IETD-FMK) and caspase-9 inhibitor (Z-LEHD-FMK) for 1 h before the addition of conjugate and the cell death were analyzed by MTT assay as discussed earlier.

[5] = tested on: caspase-3 activity in LNCaP cells; assay: Caspase colorimetric protease assay; format: cell-based, human; conditions: 24 h
Experimental: as §3

[6] = tested on: caspase-9 activity in PC-3 cells; assay: Caspase colorimetric protease assay; format: cell-based, human; conditions: PC-3, 10, 20 and 40 μM, 24 h
Experimental: as §3

[7] = tested on: caspase-8 activity in PC-3 cells; assay: Caspase colorimetric protease assay; format: cell-based, human; conditions: PC-3, 24 h, high dose
Experimental: as §3

[8] = tested on: caspase-9 activity in LNCaP cells; assay: Caspase colorimetric protease assay; format: cell-based, human; conditions: 24 h
Experimental: as §3

p-ERK in PC-3 cells = assay: Immunoblot of ERK phosphorylation; format: cell-based, human; conditions: 24 h
Experimental: as §1, §2

[9] = tested on: AR protein in LNCaP cells; assay: Immunoblot of AR protein; format: cell-based, human
Experimental: as §1

LNCaP cells [10] = assay: MTT cytotoxicity assay; format: cell-based; conditions: Homo sapiens, 24 h, 24 h exposure, mean ± SEM, read-out: IC50 value (50% growth inhibition)
Experimental: (§4) MTT assay was carried out as described previously. In brief, 5×10^3 cells in 200 μl of medium were seeded in 96-well plates (Griener, Germany). After 24 h, the cells were treated with various concentrations (0.1, 1, 10, 100 and 1000 μM) of RESV, PTER and conjugate. The control cells were treated with 0.1% DMSO (vehicle control). The cultured cells were assayed after 24 h by adding 20 μl of 5 mg/ml MTT followed by incubating at 37°C for 4 h. The MTT containing media was then aspirated and 200 μl DMSO (Himedia, Mumbai, India) was added to dissolve the formazone crystals. The optical density (OD) was measured at 570 nm using ELISA plate reader (Fluostar optima, BMG Labtech, Germany). The percentage inhibition was calculated as: [drawing 1]
(§5) The dose response curve and IC50 values were obtained by nonlinear regression analysis [non-linear regression (sigmoidal dose response with variable slope)] using Graph Pad Prism, version 5.02 software (Graph Pad Software Inc., CA, USA).

PC-3 cells [11] = assay: MTT cytotoxicity assay; format: cell-based; conditions: Homo sapiens; PC-3, MTT, 24 h exposure, mean ± SEM; read-out: IC50 value (50% growth inhibition)
Experimental: as §4, §5

CHO cells = assay: MTT cytotoxicity assay; format: cell-based; conditions: Cricetulus griseus, CHO noncancer cells, 24 h exposure, read-out: IC50 value (50% growth inhibition)
Experimental: as §4, §5

COS-1 cells = assay: MTT cytotoxicity assay; format: cell-based; conditions: Chlorocebus aethiops, COS-1 noncancer cells, 24 h exposure, read-out: IC50 value (50% growth inhibition)
Experimental: as §4, §5

LNCaP cells [12] = assay: Caspase inhibitor assay (conjugate-induced cell death, MTT); format: cell-based, human; conditions: 20 μM caspase inhibitor 1 h before 20 μM conjugate, MTT after 24 h
Experimental: as §3
(§6) Figure 2 The conjugate induces G2/M phase arrest and caspase dependent cell death in prostate cancer cells. Cell cycle distribution of (A) PC-3 and (B) LNCaP cells upon treatment with varying doses of conjugate. Results are presented as mean ± SEM of three independent experiments. *represents statistically significant difference with respect to vehicle treated PC-3 and LNCaP cells respectively corresponding to each stage of cell cycle at p<0.05. (C) The effects of varying doses of conjugate (left panel) and resveratrol (right panel) on caspase-8, -9 and -3 activities in PC-3 and (D) LNCaP cells. Results are the mean ± SEM of three independent experiments. *represents statistically significant difference with respect to control cells for respective caspases tested at p<0.05. (E) The effect of caspase inhibitors on conjugate-induced cell death in PC-3 and (F) LNCaP cells. The cells were pre-treated with 20 μM of respective caspase inhibitors: Z-LEHDFMK (caspase-9 inhibitor); Z-IETDFMK (caspase-8 inhibitor); and Z-VAD-FMK (general caspase inhibitor) for 1 h before the addition of 20 μM conjugate. Cell death was measured 24 h after conjugate treatment using MTT assay. Data are the mean ± SEM of three independent experiments. *and # represents statistically significant difference with respect to control (vehicle) and conjugate treated cells respectively for each cell lines at p<0.05. ns, non-significant.

PC-3 cells [13] = assay: as above; format: cell-based, human; conditions: PC-3, 20 μM caspase inhibitor 1 h before 20 μM conjugate, MTT after 24 h
Experimental: as §3, §6

GRIP-1 in LNCaP cells = assay: Immunoblot of AR co-activators; format: cell-based, human; conditions: DHT treatment
Experimental: as §1

SRC-1 in LNCaP cells = assay: Immunoblot of AR co-activators; format: cell-based, human; conditions: DHT treatment
Experimental: as §1

Cc1ccc(C(=O)Cn2c3c(sc2=N)CCCC3)cc1 [PFT-α, pifithrin-α, reference compound]
expression of p53 protein [1]: significantly down regulated

Oc1ccc(/C=C/c2cc(O)cc(O)c2)cc1 [Resveratrol, reference compound]
AR immunofluorescence intensity (AR in LNCaP cells): marginal decrease
enhancement of caspase-3 expression [2]: 3.5 folds
enhancement of caspase-3 expression [3]: 4.5 folds
decrease in level of p-Akt (p-Akt in PC-3 cells; PC-3, 20 μM): about 1.2 folds
decrease in level of p-Akt (p-Akt in PC-3 cells; PC-3, 40 μM): ~1.6 folds
effect on level of p-Akt (p-Akt in LNCaP cells): negligible effects
caspase-3 enzyme activity [4]: dose-dependent augmentation
caspase-3 activity [5]: significant increase
caspase-9 enzyme activity [6]: dose-dependent augmentation
caspase-8 activity [7]: marginal increase
caspase-9 activity [8]: significant increase
reduction in level of p-ERK (p-ERK in PC-3 cells; PC-3, 20 μM): 1.3 folds
reduction in level of p-ERK (p-ERK in PC-3 cells; PC-3, 40 μM): 1.8 folds
inhibition of AR protein levels ([9]; 10 and 20 μM, absence of DHT): did not show any significant inhibition
inhibition of DHT induced AR protein levels ([9]; till 20 μM, 10 nM DHT): did not show any significant inhibition
IC50 (LNCaP cells [10]): ~82.2 µM
IC50 (PC-3 cells [11]): 95 ± 1.13 µM
IC50 (CHO cells): > 100 µM
IC50 (COS-1 cells): > 100 µM

Z-IETD-FMK: caspase-8 specific inhibitor
inhibition of conjugate induced cell death/apoptosis (LNCaP cells [12]): only partially inhibited
inhibition of conjugate induced cell death (PC-3 cells [13]): completely ineffective

Cbz-Val-Ala-Asp-CH2F
inhibition of conjugate induced cell death/apoptosis (LNCaP cells [12]): significant inhibition of cell death
inhibition of conjugate induced cell death (PC-3 cells [13]): significant inhibition of cell death

COC(=O)CC[C@H](NC(=O)[C@H](CC(C)C)NC(=O)OCc1ccccc1)C(=O)N[C@@H](Cc1c[nH]cn1)C(=O)N[C@@H](CC(=O)OC)C(=O)CF [Z-LEHD-FMK] (Cbz-LE(OMe)HD(OMe)-CH2F)
inhibition of conjugate induced cell death/apoptosis (LNCaP cells [12]): almost completely blocked

C[C@]12CCC(=O)C[C@@H]1CC[C@@H]1[C@@H]2CC[C@]2(C)[C@@H](O)CC[C@@H]12 [DHT, dihydrotestosterone, reference compound]
change in expression of GRIP-1 (GRIP-1 in LNCaP cells): no significant change
increase in expression of SRC-1 (SRC-1 in LNCaP cells): 1.2 fold

COc1cc(/C=C/c2ccc(O)cc2)cc(OC)c1 [Pterostilbene]
IC50 (LNCaP cells [10]): ~66.4 µM
IC50 (PC-3 cells [11]): 75 ± 2.55 µM
IC50 (CHO cells): > 100 µM
IC50 (COS-1 cells): > 100 µM
